Assays:
[1] = tested on: Rat Model of CC14-Induced Acute Hepatopathy; assay: Rat model of carbon tetrachloride-induced acute hepatopathy; assay type: in vivo; conditions: experimental fluids administered for two days; L-valine 16.88 g/L in lactated Ringer's, 100 mL/kg/day iv; mean ± SD
Protocol: (§1) Crj: Donryu male rats aged 8-9 weeks and weighing 250 g or so were used. During the experiment, the rats were given a dedicated feed MF (product of Oriental Yeast) and water ad libitum. D-Galactosamine HCl (product of Sigma) was dissolved in physiological saline, adjusted to pH 7.0 with 1 N NaOH and used as a solution containing 100 mg of D-galactosamine (hereinafter referred to simply as “galactosamine”) per milliliter. Carbon tetrachloride (product of Wako Pure Chemical Industries) was used as a 50% (v/v) solution in olive oil (product of Wako Pure Chemical Industries). After 12-h fasting, the rats were administered intraperitoneally with galactosamine in a volume of 10 mL/kg or subcutaneously with the carbon tetrachloride solution at a volume of 4 mL/kg to induce hepatopathy. Immediately after the administration, the rats were anesthetized with ether and a catheter was inserted into the right cervical vein of each animal and retained in the central vein. The catheter in the central vein was passed under the skin to connect the blade bones, fitted with a harness, passed through a protective coil and connected to a swivel (Bio-Cannula of Biomedica). The rats were transferred into a metabolic cage and subjected to the experiment under a non-anesthetized and unconstrained condition. The experimental fluids were administered constantly with the pumping speed set at 100 mL/kg/day. The experimental fluids were administered for 1-4 days. The treated groups were two, one being a control group administered with a lactated Ringer's injection [[…] (registered trademark) of Otuka Seiyaku] and the other being an L-Val group administered with valine (L-valine added to lactated Ringer's injection to a concentration of 16.88 g/L). A non-treated (NT) group was also set. After the end of administration of the experimental fluids, the rats were anesthetized with ether and blood was taken from the abdominal aorta; thereafter, autopsy was done to collect liver samples.

[2] = tested on: Rat Model of CCl4-Induced Chronic Hepatopathy; assay: Rat model of CCl4-induced chronic hepatopathy; assay type: in vivo; conditions: feed with 3 wt % L-valine for 14 weeks
Protocol: Crj: Donryu male rats aged 8-9 weeks were used. During the experiment, the rats were given a dedicated feed MF (product of Oriental Yeast) and water ad libitum. Carbon tetrachloride (product of Wako Pure Chemical Industries) was dissolved in olive oil (product of Wako Pure Chemical Industries) to prepare a 50% (v/v) solution, which was administered subcutaneously to the rats for 14 weeks on a twice-a-week basis (to give 28 shots), each time at a dose of 2 mL/kg, thereby preparing models of chronic hepatopathy. During the 14-week experiment, the rats were given an experimental feed which was a dedicated feed MF; this was given as such to the control group and as a mixture with 3 wt % L-valine to the L-val group. A non-treated (NT) group was also set. After the end of the 14-week experiment, the rats were anesthetized with ether and blood was taken from the abdominal aorta; thereafter, autopsy was done to collect liver samples.

[3] = tested on: Rat Model of Glactosamine-Induced Acute Hepatopathy; assay: Rat model of galactosamine-induced acute hepatopathy; assay type: in vivo; conditions: experimental fluids administered for one day; L-valine 16.88 g/L in lactated Ringer's, 100 mL/kg/day iv; mean ± SD
Protocol: as §1

[4] = tested on: Patient with chronic hepatitis C; assay: Peroral L-valine in patient with chronic hepatitis C; assay type: in vivo, human; conditions: 4-month period after start of oral L-valine 1 g three times a day; mean±SD of four monthly tests
Excerpt: Patient ([…]) with chronic hepatitis C was given oral administration of L-valine on a three-times-a-day basis, with one gram at each time. The average GOT and GPT levels of the patient for a 4-month period before the administration of L-valine were 89.0±21.9 IU/L and 91.5±23.1 IU/L, respectively, in terms of mean±SD obtained by four tests on a monthly basis. The average GOT and GPT levels for a 4-month-period after the start of valine administration were 68.3±20.4 IU/L and 73.0±24.3 IU/L, respectively, in terms of mean±SD obtained by four tests on a monthly basis; thus, significant (p<0.05 in t-test) decreases were observed. An ameliorating effect was also observed in platelet counts; the average platelet count for a 6-month period before the administration of L-valine was 15.7±1.7 (×10^4) in terms of mean±SD obtained by four tests on a monthly or bimonthly basis, whereas the average platelet count for a 4-month period after the start of valine administration was 20.4±0.9 (×104) in terms of mean±SD obtained by four tests on a monthly basis; thus, a significant (p<0.01 in t-test) increase was observed. It was therefore clear that L-valine is also effective in patients with chronic hepatitis.

[5] = tested on: Rat Model of Hepatic Insufficiency due to 90% Hepatectomy; assay: Rat model of hepatic insufficiency due to 90% hepatectomy; assay type: in vivo
Excerpt: Crj: Donryu male rats aged 8-9 weeks and weighing 250 g or so were used. During the experiment, the rats were given a dedicated feed MF (product of Oriental Yeast) and water ad libitum. After 12-h fasting, the rats were anesthetized with ether and a catheter was inserted into the right cervical vein of each animal and retained in the central vein. Subsequently, the rats were underwent 90% hepatectomy according to the method of Gaub et al. (J. Gaub et al., Hepatology, 4, 902-904, 1984). The catheter in the central vein was passed under the skin to connect the blade bones, fitted with a harness, passed through a protective coil and connected to a swivel (Bio-Cannula of Biomedica). The rats were transferred into a metabolic cage and subjected to the experiment under a non-anesthetized and unconstrained condition. The experimental fluids were administered constantly with the pumping speed set at 100 mL/kg/day. Immediately after the hepatectomy, 3 mL of a 20% glucose solution was administered to the rats subcutaneously; for 3 days after the hepatectomy, the rats were allowed to drink a 10% glucose solution and thereafter tap water. The experimental fluids were administered for 4 or 6 days. The treated groups were two, on being a control group administered with a lactated Ringer's injection [Lactec (registered trademark) of Otuka Seiyaku] and the other being an L-val group administered with valine (L-valine added to lactated Ringer's injection to a concentration of 16.88 g/L). A non-treated (NT) group was also set. After the end of the administration of the experimental fluids, the rats were anesthetized with ether and blood was taken from the abdominal aorta; thereafter, autopsy was done to collect liver samples.

[6] = experimental fluids administered for four days, mean ± SD
[7] = experimental fluids administered for six days, 20 animals

SMILES: CC(C)[C@H](N)C(=O)O [L-Val, L-valine]
- Fischer ratio BCAA/AAA [1]: 4.32 ± 1.74
- GOT [1]: 3241.9 ± 2567.2 IU/1
- GPT [1]: 1951.2 ± 1730.9 IU/l
- LDH [1]: 3040.1 ± 4163.3 IU/l
- TP [1]: 5.1 ± 0.4 g/dL
- No. of deaths ([2]; 10 animals): 0
- No. of viable cases ([2]; 10 animals): 10
- Retention of ascites (No. of cases) ([2]; 10 animals): 1
- Retention of pleural effusion (No. of cases) ([2]; 10 animals): 0
- Fischer ratio BCAA/AAA ([2]; mean ± SD): 3.17 ± 0.96
- Alb [3]: 2.5 ± 0.1 g/dL
- Fischer ratio BCAA/AAA [3]: 6.42 ± 0.40
- GOT [3]: 760.2 ± 215.4 IU/1
- GPT [3]: 415.7 ± 180.8 IU/1
- LDH [3]: 973.7 ± 362.0 IU/1
- TP [3]: 4.9 ± 0.3 g/dL
- average GOT level [4]: 68.3±20.4 IU/L
- average GPT level [4]: 73.0±24.3 IU/L
- average platelet count [4]: 20.4±0.9 ×104
- Alb [5, 6]: 1.8 ± 0.2 g/dL
- Fischer ratio BCAA/AAA [5, 6]: 3.33 ± 1.11
- GOT [5, 6]: 402.3 ± 302.4 IU/l
- GPT [5, 6]: 134.9 ± 76.3 IU/l
- TP [5, 6]: 3.6 ± 0.5 g/dL
- No. of deaths [5, 7]: 1
- No. of viable cases [5, 7]: 19
- Viability ([5]; experimental fluids administered for six days, 20 animals, P < 0.01 vs control): 95%

From patent US20040022827A1, “Remedy for hepatopathy” (CHUGAI SEIYAKU KABUSIKI KAISHA, priority 1997, published 2004)
